We go through 17 molecules from US20260000676A1, “CHROMAN DERIVATIVES AS ESTROGEN RECEPTOR DEGRADERS” (THE REGENTS OF THE UNIVERSITY OF MICHIGAN, priority 2022, published 2026).

Each structure is given as a SMILES string. Where a name gives a salt, the structure may show the parent alone. Bounds are passed on as bounds.

Assay [1] addresses T1, ER (Homo sapiens (Human), UniProt P03372). Description: In-cell western (ICW) ER degradation assay in MCF-7 cells. In kind it is cell-based. Conditions: MCF7, 16 hrs; for DC50: ER degradation; for Dmax: MCF7, maximal ER degradation. On the procedure:
(§1) ERa degradative activity of compounds can be assessed in MCF-7 and T47D Cells. MCF-7 and T47D cell are seeded and are subsequently treated with the compounds at certain concentrations (e.g., 0.02 to 300 nM). DMSO can be used as vehicle control. Cells are fixed and are blocked with Intercept (PBS) Blocking Buffer (e.g., Li-COR, Odyssey Blocking Buffer), and are stained with ER (e.g., 1:500, Cell signaling) primary antibody for overnight at cold room. Secondary Antibody (e.g., IRDye 800CW Goat anti-Rabbit IgG) and CellTag 700 Stain are added in Intercept (PBS) Blocking Buffer. Finally, cell plate is placed in incubator to dry. Image and signal are captured on Odyssey® DLx Imaging System.
(§2) Day 3: After 16 hrs of compounds treatment, cells were fixed by 4% PFA and permeabilized with elution buffer (0.1% Triton X-100 in 1% PBS Solution). Subsequently, cells were blocked with Intercept (PBS) Blocking Buffer (Li-COR, Odyssey Blocking Buffer), and were stained with ER (1:500, Cell signaling) primary antibody for overnight at cold room.
(§3) Day 4: Remove the buffer, add IRDye 800CW Goat anti-Rabbit IgG Secondary Antibody (1:2000) and CellTag 700 Stain (1:500) in Intercept (PBS) Blocking Buffer. Finally, cell plate is placed in incubator to dry. Image and signal were captured on Odyssey® DLx Imaging System.

Assay [2] deals with T1, ER. Description: In-cell western (ICW) ER degradation assay in T47D cells. In kind it is cell-based. The following applies: 16 hrs; for DC50: ER degradation; for Dmax: maximal ER degradation. How it is done: as §1, §2, §3

T1 sequence (P03372 whole entry): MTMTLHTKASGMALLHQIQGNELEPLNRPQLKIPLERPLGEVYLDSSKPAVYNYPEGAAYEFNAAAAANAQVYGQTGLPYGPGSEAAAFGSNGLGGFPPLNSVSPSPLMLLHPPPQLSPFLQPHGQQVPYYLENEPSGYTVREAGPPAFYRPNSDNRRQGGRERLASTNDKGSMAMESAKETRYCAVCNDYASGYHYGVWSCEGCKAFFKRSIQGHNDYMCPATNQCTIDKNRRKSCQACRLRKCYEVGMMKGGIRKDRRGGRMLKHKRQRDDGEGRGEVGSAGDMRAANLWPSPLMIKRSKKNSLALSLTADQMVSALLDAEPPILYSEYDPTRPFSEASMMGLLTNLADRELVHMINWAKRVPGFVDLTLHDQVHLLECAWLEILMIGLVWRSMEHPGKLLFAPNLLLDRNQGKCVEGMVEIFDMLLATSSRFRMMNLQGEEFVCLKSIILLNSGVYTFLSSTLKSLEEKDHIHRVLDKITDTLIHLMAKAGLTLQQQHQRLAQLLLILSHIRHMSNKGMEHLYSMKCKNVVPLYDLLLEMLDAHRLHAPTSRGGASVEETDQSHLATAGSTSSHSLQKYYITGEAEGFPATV

Usually DC50 stands for the concentration giving 50% degradation. A higher DC50 goes with degradation only at high concentration. The Dmax is the largest share of the target that was removed. A high value points to a fuller loss of target. On ER [1], `O=C1CCC(N2Cc3cc4c(cc3C2=O)OCC42CCN(CC3CC4(CCN(c5ccc([C@@H]6c7ccc(O)cc7OC[C@@H]6c6ccccc6)cc5)CC4)C3)CC2)C(=O)N1` (stereo partly drawn) [Compound A71, 3-(1′-((7-(4-((3S,4R)-7-hydroxy-3-phenylchroman-4-yl)phenyl)-7-azaspiro[3.5]nonan-2-yl)methyl)-7-oxo-5,7-dihydro-2H,6H-spiro[furo[2,3-f]isoindole-3,4′-piperidin]-6-yl)piperidine-2,6-dione] registered a half-maximal degradation concentration (DC50) below 1 nM and a Dmax of 50 to 75%. Moreover, at ER [2], the half-maximal degradation concentration (DC50) is below 1 nM and the Dmax was in the range of 50 to 75%.

For the molecule `COc1cc(N2CCC(CN3CCN4c5ccc6c(c5OC[C@@H]4C3)CN([C@@H]3CCC(=O)NC3=O)C6=O)CC2)ccc1[C@H]1c2ccc(O)cc2OC[C@H]1c1ccccc1` (single isomer, unassigned) [Compound A121, (R)-3-((S)-7-((1-(4-((3R,4S)-7-hydroxy-3-phenylchroman-4-yl)-3-methoxyphenyl)piperidin-4-yl)methyl)-1-oxo-1,3,5,5a, 6,7,8,9-octahydro-2H-pyrazino[1′,2′:4,5][1,4]oxazino[2,3-e]isoindol-2-yl)piperidine-2,6-dione], the DC50 on ER [1] and at ER [2] was below 1 nM in each case.

On to `O=C1CC[C@@H](N2Cc3cc4c(cc3C2=O)OC[C@H]2CN(CC3COC5(CCN(c6ccc(C7c8ccc(O)cc8OCC7c7ccccc7)cc6)CC5)C3)CCN42)C(=O)N1` (stereo in doubt) [Compound A139, (3R)-3-((4aR)-3-((8-(4-((3R,4S)-7-hydroxy-3-phenylchroman-4-yl)phenyl)-1-oxa-8-azaspiro[4.5]decan-3-yl)methyl)-8-oxo-1,2,3,4,4a, 5,8,10-octahydro-9H-pyrazino[1′,2′:4,5][1,4]oxazino[2,3-f]isoindol-9-yl)piperidine-2,6-dione], for which the DC50 at ER [1] and at ER [2] was below 1 nM in each case. Moreover, the Dmax on ER [1] and at ER [2] was 50 to 75% in each case.

With `O=C1CCC(Nc2ccc3c(c2)OC[C@H]2CN(CC4CCN(c5ccc([C@@H]6c7ccc(O)cc7OC[C@@H]6c6ccccc6)cc5)CC4)CCN32)C(=O)N1` (single isomer, unassigned) [Compound A91, 3-(((R)-3-((1-(4-((3S,4R)-7-hydroxy-3-phenylchroman-4-yl)phenyl)piperidin-4-yl)methyl)-1,2,3,4,4a,5-hexahydrobenzo[b]pyrazino[1,2-d][1,4]oxazin-8-yl)amino)piperidine-2,6-dione hydrochloride], the Dmax at ER [1] and at ER [2] was 50 to 75% throughout.

On ER [1], `O=C1CCC(N2Cc3cc4c(cc3C2=O)OCC42CCN(CC3CC4(CCN(c5ccc([C@H]6c7ccc(O)cc7OC[C@H]6c6ccccc6)cn5)CC4)C3)CC2)C(=O)N1` (stereo partly drawn) [Compound A123, 3-(1′-((7-(5-((3R,4S)-7-hydroxy-3-phenylchroman-4-yl)pyridin-2-yl)-7-azaspiro[3.5]nonan-2-yl)methyl)-7-oxo-5,7-dihydro-2H,6H-spiro[furo[2,3-f]isoindole-3,4′-piperidin]-6-yl)piperidine-2,6-dione] displayed a DC50 below 1 nM and a Dmax of 50 to 75%. At ER [2], the DC50 is below 1 nM and the Dmax lay in the range of 50 to 75%.

Take `O=C1CCC(N2Cc3cc4c(cc3C2=O)OC[C@@H]2CN(CC3CCN(c5ccc([C@@H]6c7ccc(O)cc7OC[C@@H]6c6ccccc6)cc5)CC3)CCN42)C(=O)N1` (single isomer, unassigned) [Compound A1]: at ER [1], the DC50 lay in the range of 1 to 10 nM and the Dmax is 50 to 75%.

On ER [2], `O=C1CCC(N2Cc3cc4c(cc3C2=O)OCC42CCN(CC3CCN(c4ccc([C@@H]5c6ccc(O)cc6OC[C@@H]5c5ccccc5)cc4)CC3)CC2)C(=O)N1` (stereo partly drawn) [Compound A86, 3-(1′-((1-(4-((3S,4R)-7-hydroxy-3-phenylchroman-4-yl)phenyl)piperidin-4-yl)methyl)-7-oxo-5,7-dihydro-2H,6H-spiro[furo[2,3-f]isoindole-3,4′-piperidin]-6-yl)piperidine-2,6-dione] registered a 50% degradation concentration (DC50) below 1 nM and a Dmax of 25 to 50%.

In the case of `O=C1CC[C@@H](N2Cc3c(ccc4c3OC[C@@H]3CN(CC5COC6(CCN(c7ccc([C@@H]8c9ccc(O)cc9OC[C@@H]8c8ccccc8)cc7F)CC6)C5)CCN43)C2=O)C(=O)N1` (single isomer, unassigned) [Compound A158, (3R)-3-((5aS)-7-((8-(2-fluoro-4-((3S,4R)-7-hydroxy-3-phenylchroman-4-yl)phenyl)-1-oxa-8-azaspiro[4.5]decan-3-yl)methyl)-1-oxo-1,3,5,5a,6,7,8,9-octahydro-2H-pyrazino[1′,2′:4,5][1,4]oxazino[2,3-e]isoindol-2-yl)piperidine-2,6-dione], the Dmax was 50 to 75% on ER [1] and at least 75% on ER [2].

`O=C1CCC(N2Cc3cc4c(cc3C2=O)OC[C@@H]2CN(CC3CCN(c5ccc([C@@H]6c7ccc(O)cc7OC[C@@H]6c6ccccc6)cc5F)CC3)CCN42)C(=O)N1` (single isomer, unassigned) [Compound A2] returned a Dmax on ER [1] of 50 to 75%.

For `O=C1CCC(N2C(=O)c3cc4c(cc3C2=O)CN(CC(=O)N2CCC3(CC2)CCN(c2ccc([C@@H]5c6ccc(O)cc6OC[C@@H]5c5ccccc5)cc2)CC3)C4)C(=O)N1` (single isomer, unassigned) [Compound A3], at ER [1], the DC50 lay in the range of 1 to 10 nM and the Dmax lay within 25 to 50%.

At ER [1], `O=C1CC[C@@H](N2Cc3c(ccc4c3OC[C@H]3CN(CC5CC6(CCN(c7ccc([C@@H]8c9ccc(O)cc9OC[C@@H]8c8ccccc8)cc7)CC6)C5)CCN43)C2=O)C(=O)N1` (single isomer, unassigned) [Compound A89] returned a DC50 below 1 nM and a Dmax of at least 75%. Moreover, on ER [2], the DC50 was below 1 nM and the Dmax is at least 75%.

As for `COc1ccc([C@H]2COc3cc(O)ccc3[C@H]2c2ccc(N3CCC(CN4CCN5c6ccc7c(c6OC[C@H]5C4)CN(C4CCC(=O)NC4=O)C7=O)CC3)cc2)cc1` (single isomer, unassigned) [Compound A16, 3-((R)-7-((1-(4-((3S,4R)-7-hydroxy-3-(4-methoxyphenyl)chroman-4-yl)phenyl)piperidin-4-yl)methyl)-1-oxo-1,3,5,5a, 6,7,8,9-octahydro-2H-pyrazino[1′,2′:4,5][1,4]oxazino[2,3-e]isoindol-2-yl)piperidine-2,6-dione], the DC50 at ER [1] is below 1 nM.

In the case of `COc1cc(N2CCC(CN3CCC(c4ccc(N[C@H]5CCC(=O)NC5=O)cc4)CC3)CC2)ccc1[C@@H]1c2ccc(O)cc2OC[C@@H]1c1ccccc1` (stereo in doubt) [Compound A149, (S)-3-((4-(1-((1-(4-((3S,4R)-7-hydroxy-3-phenylchroman-4-yl)-3-methoxyphenyl)piperidin-4-yl)methyl)piperidin-4-yl)phenyl)amino)piperidine-2,6-dione], on ER [1], the DC50 was below 1 nM and the Dmax is 50 to 75%. At ER [2], this molecule gave a DC50 below 1 nM and a Dmax of 50 to 75%.

For `O=C1CCC(N2Cc3cc4c(cc3C2=O)OC[C@@H]2CN(CC3CCN(c5ccc([C@@H]6c7ccc(O)cc7OC[C@@H]6c6ccccc6)cn5)CC3)CCN42)C(=O)N1` (single isomer, unassigned) [Compound A70, 3-((S)-3-((1-(5-((3S,4R)-7-hydroxy-3-phenylchroman-4-yl)pyridin-2-yl)piperidin-4-yl)methyl)-8-oxo-1,2,3,4,4a,5,8,10-octahydro-9H-pyrazino[1′,2′:4,5][1,4]oxazino[2,3-f]isoindol-9-yl)piperidine-2,6-dione], the Dmax at ER [1] was below 25%; on ER [2] it was 25 to 50%.

As to `O=C1CCC(N2Cc3cc4c(cc3C2=O)OC[C@@H]2CN(CC3CCN(c5ccc([C@@H]6c7ccc(O)cc7OC[C@@H]6c6ccccc6)cc5F)CC3)CCN42)C(=O)N1` (single isomer, unassigned) [Compound A2, 3-((S)-3-((1-(2-fluoro-4-((3S,4R)-7-hydroxy-3-phenylchroman-4-yl)phenyl)piperidin-4-yl)methyl)-8-oxo-1,2,3,4,4a, 5,8,10-octahydro-9H-pyrazino[1′,2′:4,5][1,4]oxazino[2,3-f]isoindol-9-yl)piperidine-2,6-dione], the 50% degradation concentration (DC50) at ER [1] fell in the range of 1 to 10 nM.

`COc1ccc([C@H]2COc3cc(O)ccc3[C@H]2c2ccc(N3CCC(CN4CCN5c6ccc7c(c6OC[C@H]5C4)CN(C4CCC(=O)NC4=O)C7=O)CC3)cc2)cc1` (single isomer, unassigned) [Compound A16] returned a Dmax at ER [1] of 50 to 75%.

At ER [1], `O=C1CC[C@@H](N2Cc3c(ccc4c3OCC43CCN(CC4CC5(CCN(c6ccc([C@H]7c8ccc(O)cc8OC[C@H]7c7ccccc7)cc6)CC5)C4)CC3)C2=O)C(=O)N1` [Compound A143, (R)-3-(1′-((7-(4-((3R,4S)-7-hydroxy-3-phenylchroman-4-yl)phenyl)-7-azaspiro[3.5]nonan-2-yl)methyl)-6-oxo-6,8-dihydro-2H,7H-spiro[furo[2,3-e]isoindole-3,4′-piperidin]-7-yl)piperidine-2,6-dione] came in with a DC50 of 10 to 100 nM and a Dmax of 25 to 50%. On ER [2], the DC50 lay within 10 to 100 nM and the Dmax fell in the range of 25 to 50%.
